Activity calls are given as the source filed them. The calls are words filed in the database; no cut-off is given here.
What was measured:
[1] = system: Mus musculus; test: Immunostimulatory activity in C57BL/6JNarl mouse assessed as increase in IL-4 expression level in serum at 20 microg/g, ip and measured after 18 hrs by ELISA; format: functional, organism-based; settings: dose 20.0 µg/g
[2] = system: Mus musculus; test: Immunostimulatory activity in C57BL/6JNarl mouse assessed as increase in IFN-gamma expression level in serum at 20 microg/g, ip and measured after 2 hrs by ELISA; format: functional, organism-based; settings: dose 20.0 µg/g
[3] = system: Mus musculus; test: Immunostimulatory activity in C57BL/6JNarl mouse assessed as increase in Cd86 mRNA expression level in spleen at 20 microg/g, ip by RT-qPCR analysis; format: functional, organism-based; settings: dose 20.0 µg/g
[4] = system: Splenocyte; test: Immunostimulatory activity in MyD88 knockout C57BL/6JNarl mouse splenocytes assessed as increase in IFN-gamma expression level at 10 to 25 uM incubated for 48 hrs by ELISA; format: functional, cell-based; settings: dose 10-25 µM
[5] = biological target: Toll-like receptor 2 (Homo sapiens) (UniProt O60603); test: Agonist activity at human TLR2 expressed in human HEK293 cells assessed as IL-8 expression level at 10 to 25 uM incubated for 24 hrs by ELISA; format: cell-based; settings: dose 10-25 µM
[6] = system: Splenocyte; test: Cytotoxicity in wild-type C57BL/6JNarl mouse splenocytes assessed as reduction in cell viability at 25 uM by MTT assay; format: toxicity, cell-based
[7] = system: BMDC; test: Induction of MyD88 knockout C57BL/6JNarl mouse BMDC cells maturation assessed as increase in IL-12p40 expression level at 10 to 50 uM by ELISA; format: functional, cell-based; settings: dose 10-50 µM
[8] = biological target: Toll-like receptor 4 (Homo sapiens) (UniProt O00206); test: Activation of TLR4 signaling in human HEK293 cells assessed as IL-8 expression level at 10 to 25 uM incubated for 24 hrs by ELISA; format: cell-based; settings: dose 10-25 µM
[9] = Induction of wild type C57BL/6JNarl mouse BMDC cells maturation assessed as increase in CD86 expression at 50 uM by flow cytometry (Rvb= 10.6%); format: functional
[10] = system: HEK293; test: Cytotoxicity in human HEK293 cells assessed as reduction in cell viability at 25 uM by MTT assay; format: toxicity, cell-based; settings: hek293, 25 µM
[11] = Induction of MyD88 knockout C57BL/6JNarl mouse BMDC cells maturation assessed as increase in CD86 expression at 50 uM by flow cytometry (Rvb= 15%); format: functional
[12] = biological target: T1, Antigen-presenting glycoprotein CD1d1 (Mus musculus) (UniProt P11609); test: Activation of CD1d signaling in mouse iNKT hybridoma DN3A4-1.2 cells co-cultured with mouse A20 cells expressing CD1d assessed as IL-2 expression level at 10 to 25 uM incubated for 24 hrs by ELISA; format: cell-based; settings: iNKT hybridoma DN3A4-1.2 cell, dose 10-25 µM
T1 sequence (whole entry): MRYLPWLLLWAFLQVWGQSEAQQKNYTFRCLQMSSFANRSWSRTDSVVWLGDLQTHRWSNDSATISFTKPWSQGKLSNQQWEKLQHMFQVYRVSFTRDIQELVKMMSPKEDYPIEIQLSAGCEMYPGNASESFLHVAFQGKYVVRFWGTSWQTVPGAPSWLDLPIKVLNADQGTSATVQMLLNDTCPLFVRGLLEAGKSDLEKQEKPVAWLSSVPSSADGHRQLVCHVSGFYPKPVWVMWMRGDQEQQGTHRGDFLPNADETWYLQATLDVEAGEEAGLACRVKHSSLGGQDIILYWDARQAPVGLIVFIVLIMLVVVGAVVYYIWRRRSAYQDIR

[13] = system: Splenocyte; test: Immunostimulatory activity in MyD88 knockout C57BL/6JNarl mouse splenocytes assessed as increase in IL-6 expression level at 10 to 25 uM incubated for 48 hrs by ELISA; format: functional, cell-based; settings: dose 10-25 µM
[14] = biological target: Toll-like receptor 4 (Homo sapiens) (UniProt O00206); test: Activation of TLR4 signaling in human HEK293 cells expressing human MD-2 and CD14 assessed as IL-8 expression level at 10 to 25 uM incubated for 24 hrs by ELISA; format: cell-based; settings: dose 10-25 µM
[15] = system: PBMC; test: Immunostimulatory activity in human PBMC cells assessed as increase in IFN-gamma expression level at 10 to 25 uM by ELISA; format: functional, cell-based; settings: dose 10-25 µM
[16] = biological target: Toll-like receptor 4 (Homo sapiens) (UniProt O00206); test: Agonist activity at human TLR4 expressed in human HEK293 cells co-expressing human MD-2 and CD14 assessed as IL-8 expression level at 10 to 25 uM incubated for 24 hrs by ELISA; format: cell-based; settings: filed as agonist, dose 10-25 µM
[17] = system: Splenocyte; test: Immunostimulatory activity in wild-type C57BL/6JNarl mouse splenocytes assessed as increase in IFN-gamma expression level at 10 to 25 uM incubated for 48 hrs by ELISA; format: functional, cell-based; settings: dose 10-25 µM
[18] = system: Splenocyte; test: Immunostimulatory activity in wild-type C57BL/6JNarl mouse splenocytes assessed as increase in IL-6 expression level at 10 to 25 uM incubated for 48 hrs by ELISA; format: functional, cell-based; settings: dose 10-25 µM
[19] = system: Mus musculus; test: Immunomodulatory activity in OVA-sensitized asthmatic BALB/c mouse model assessed as inhibition of methacholine induced airway hyperreactivity by measuring pulmonary resistance at 20 microg/g, ip administered after day 14 OVA sensitization; format: functional; set-up: scale not given: the % may be the effect or the level left; settings: dose 20 µg/g
[20] = system: Mus musculus; test: Immunostimulatory activity in C57BL/6JNarl mouse assessed as increase in IFN-gamma expression level in serum at 20 microg/g, ip and measured after 18 hrs by ELISA; format: functional, organism-based; settings: dose 20.0 µg/g
[21] = system: PBMC; test: Immunostimulatory activity in human PBMC cells assessed as increase in IL-6 expression level at 10 to 25 uM by ELISA; format: functional, cell-based; settings: dose 10-25 µM
[22] = biological target: T1, Antigen-presenting glycoprotein CD1d1 (Mus musculus); test: Binding affinity to mouse CD1d in alpha-GalCer stimulated mouse iNKT hybridoma DN3A4-1.2 cells expressing co-cultured with mouse A20 cells expressing mouse CD1d assessed as inhibition of alpha-GlaCer activity by measuring IL-2 expression level at 10 to 25 uM incubated for 24 hrs by ELISA; format: cell-based; settings: iNKT hybridoma DN3A4-1.2 cell, dose 10-25 µM
[23] = system: BMDC; test: Induction of wild type C57BL/6JNarl mouse BMDC cells maturation assessed as increase in IL-12p40 expression level at 10 to 50 uM by ELISA; format: functional, cell-based; settings: dose 10-50 µM
[24] = system: Mus musculus; test: Immunostimulatory activity in C57BL/6JNarl mouse assessed as increase in IL-4 mRNA expression level in spleen at 20 microg/g, ip by RT-qPCR analysis; format: functional, organism-based; settings: dose 20.0 µg/g
[25] = system: Mus musculus; test: Anti-inflammatory activity in OVA-sensitized asthmatic BALB/c mouse model assessed as reduction in IL-13 expression level in BALF at 20 microg/g, ip administered after day 14 OVA sensitization by ELISA; format: functional, organism-based; settings: dose 20.0 µg/g
[26] = Induction of wild type C57BL/6JNarl mouse BMDC cells maturation assessed as increase in CD86 expression at 10 uM by flow cytometry (Rvb= 10.6%); format: functional
[27] = system: Mus musculus; test: Immuno-adjuvant activity in C57BL/6JNarl mouse […] with OT-1 mouse splenocytes assessed as fold increase in OVA-specific CD8+ T cell proliferation at 20 microg/g, ip in presence of OVA (257 to 264 residues) peptide treatment by flow cytometry relative to control; format: functional; settings: dose 20 µg/g
[28] = system: Mus musculus; test: Immunomodulatory activity in OVA-sensitized asthmatic BALB/c mouse model assessed as reduction in IL-4 expression level in lung at 20 microg/g, ip administered after day 14 OVA sensitization by ELISA; format: functional, organism-based; settings: dose 20.0 µg/g
[29] = system: Mus musculus; test: Immunomodulatory activity in OVA-sensitized asthmatic BALB/c mouse model assessed as reduction in IL-4 expression level in BALF at 20 microg/g, ip administered after day 14 OVA sensitization by ELISA; format: functional, organism-based; settings: dose 20.0 µg/g
[30] = system: Mus musculus; test: Anti-inflammatory activity in OVA-sensitized asthmatic BALB/c mouse model assessed as reduction in IL-13 expression level in lung at 20 microg/g, ip administered after day 14 OVA sensitization by ELISA; format: functional, organism-based; settings: dose 20.0 µg/g
[31] = system: Mus musculus; test: Immunostimulatory activity in C57BL/6JNarl mouse assessed as increase in IL-4 expression level in serum at 20 microg/g, ip and measured after 2 hrs by ELISA; format: functional, organism-based; settings: dose 20.0 µg/g

Sequence of Toll-like receptor 4 (Homo sapiens) (O00206 whole entry): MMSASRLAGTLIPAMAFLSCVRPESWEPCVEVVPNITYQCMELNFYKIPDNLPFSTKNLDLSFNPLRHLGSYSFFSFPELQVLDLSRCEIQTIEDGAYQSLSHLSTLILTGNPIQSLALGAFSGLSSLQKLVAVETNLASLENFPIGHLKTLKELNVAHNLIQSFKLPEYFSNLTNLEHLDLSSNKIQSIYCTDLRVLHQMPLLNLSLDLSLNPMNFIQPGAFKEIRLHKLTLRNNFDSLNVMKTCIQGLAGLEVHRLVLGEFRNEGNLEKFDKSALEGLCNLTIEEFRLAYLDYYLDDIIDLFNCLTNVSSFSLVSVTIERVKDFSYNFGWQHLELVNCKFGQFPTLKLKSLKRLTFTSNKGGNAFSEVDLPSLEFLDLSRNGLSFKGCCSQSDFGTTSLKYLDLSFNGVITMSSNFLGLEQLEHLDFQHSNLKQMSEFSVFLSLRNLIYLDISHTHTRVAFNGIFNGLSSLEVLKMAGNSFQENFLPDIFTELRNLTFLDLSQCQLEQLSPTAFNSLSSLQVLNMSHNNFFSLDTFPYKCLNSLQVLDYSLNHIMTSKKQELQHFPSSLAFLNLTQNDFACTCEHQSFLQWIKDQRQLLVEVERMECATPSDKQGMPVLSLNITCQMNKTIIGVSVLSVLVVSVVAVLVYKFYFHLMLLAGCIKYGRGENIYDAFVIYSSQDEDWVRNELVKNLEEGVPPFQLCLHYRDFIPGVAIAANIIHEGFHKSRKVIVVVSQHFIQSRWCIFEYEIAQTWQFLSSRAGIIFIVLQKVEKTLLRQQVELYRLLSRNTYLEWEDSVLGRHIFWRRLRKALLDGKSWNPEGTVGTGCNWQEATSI
Sequence of Toll-like receptor 2 (Homo sapiens) (O60603 whole entry): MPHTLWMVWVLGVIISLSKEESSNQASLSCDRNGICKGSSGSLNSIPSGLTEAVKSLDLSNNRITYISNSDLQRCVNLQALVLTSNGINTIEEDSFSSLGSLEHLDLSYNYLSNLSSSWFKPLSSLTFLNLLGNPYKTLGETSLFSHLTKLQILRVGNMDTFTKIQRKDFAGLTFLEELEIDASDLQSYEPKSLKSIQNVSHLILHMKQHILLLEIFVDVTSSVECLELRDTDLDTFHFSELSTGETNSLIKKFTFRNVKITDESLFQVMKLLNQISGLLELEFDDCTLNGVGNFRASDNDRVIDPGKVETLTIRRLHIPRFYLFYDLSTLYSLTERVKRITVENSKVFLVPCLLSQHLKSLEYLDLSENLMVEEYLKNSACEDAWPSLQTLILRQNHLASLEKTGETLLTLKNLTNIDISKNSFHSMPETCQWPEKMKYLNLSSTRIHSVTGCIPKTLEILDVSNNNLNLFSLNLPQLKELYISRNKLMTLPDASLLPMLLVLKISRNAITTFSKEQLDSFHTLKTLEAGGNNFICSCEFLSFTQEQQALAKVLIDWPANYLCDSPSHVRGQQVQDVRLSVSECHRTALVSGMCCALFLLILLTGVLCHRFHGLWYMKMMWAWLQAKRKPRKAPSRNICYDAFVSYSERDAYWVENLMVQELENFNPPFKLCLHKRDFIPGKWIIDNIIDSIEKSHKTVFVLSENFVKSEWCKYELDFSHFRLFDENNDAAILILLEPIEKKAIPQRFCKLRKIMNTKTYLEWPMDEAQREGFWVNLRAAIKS

| Structure (SMILES) | Activity [1] | Activity [2] | Activity [4] | Activity [5] | Activity [6] | Activity [8] | Activity [10] | Activity [12] | Activity [13] | Activity [14] | Activity [15] | Activity [16] | Activity [17] | Activity [18] | Activity [19] [%] | Activity [20] | Activity [21] | Activity [22] | Activity [28] | Activity [29] | other results |
| --- | --- | --- | --- | --- | --- | --- | --- | --- | --- | --- | --- | --- | --- | --- | --- | --- | --- | --- | --- | --- | --- |
| CCCCCCCCCCCCNC(=O)[C@H](CO[C@@H]1[C@H](O)[C@@H](O)[C@H](O)[C@H]2COC(=O)N21)NC(=O)CCCCCCCCCCC | Active | Active | inactive | inactive | Non-Toxic | inactive | Non-Toxic | inactive | inactive | inactive | Active | Active | Active | Active | 50 | Active | Active | inactive | Active | Active | Activity [3]: Active; Activity [7]: inactive; Activity [9]: 54.9%; Activity [11]: 23.8%; Activity [23]: Dose-Dependent Effect; Activity [24]: Active; Activity [25]: Active; Activity [26]: 25.8%; fold change (FC) [27]: 5; Activity [30]: Active; Activity [31]: Active |
| CCCCCCCCCCCCNC(=O)[C@H](CS[C@@H]1[C@H](O)[C@@H](O)[C@@H](O)[C@H]2COC(=O)N21)NC(=O)CCCCCCCCCCC | Active | Active | inactive | inactive | Non-Toxic | inactive | Non-Toxic | inactive | inactive | inactive | inactive | Active | Active | inactive | 50 | Active | inactive | inactive | Active | Active | Activity [31]: Active |
| CCCCCCCCCCCNC(=O)[C@H](CO[C@H]1O[C@H](CO)[C@H](O)[C@H](O)[C@H]1O)NC(=O)CCCCCCCCCCC | – | – | inactive | – | – | – | – | – | inactive | – | – | – | Active | Active | – | – | – | inactive | – | – | – |
| CCCCCCCCCCCCNC(=O)[C@H](CO[C@@H]1[C@H](O)[C@@H](O)[C@@H](O)[C@H]2COC(=O)N21)NC(=O)CCCCCCCCCCC | Active | Active | inactive | inactive | Non-Toxic | inactive | Non-Toxic | inactive | inactive | inactive | Active | Active | Active | Active | 50 | Active | Active | inactive | Active | Active | Activity [25]: Active; fold change (FC) [27]: 10; Activity [30]: Active; Activity [31]: Active |
| CCCCCCCCCCCCNC(=O)[C@H](CS[C@@H]1[C@H](O)[C@@H](O)[C@H](O)[C@H]2COC(=O)N21)NC(=O)CCCCCCCCCCC | Active | Active | inactive | inactive | Non-Toxic | inactive | Non-Toxic | inactive | inactive | inactive | inactive | Active | Active | inactive | 50 | Active | inactive | inactive | Active | Active | Activity [31]: Active |

Source: ChEMBL document CHEMBL5380832, “Serine-/Cysteine-Based sp2-Iminoglycolipids as Novel TLR4 Agonists: Evaluation of Their Adjuvancy and Immunotherapeutic Properties in a Murine Model of Asthma” (J Med Chem, 2023)
